Tests used:
Assay in all cases: relative viability (nuclei count vs DMSO), 5 days (fraction); higher = more cells survive
[1] = compound: O[C@H]1CC[C@H](Nc2ncc3nc(Nc4c(F)cc(F)cc4F)n([C@H]4CCOC4)c3n2)CC1 [Tanzisertib] + CC1(C)CCC(c2ccc(Cl)cc2)=C(CN2CCN(c3ccc(C(=O)NS(=O)(=O)c4ccc(N[C@H](CCN5CCOCC5)CSc5ccccc5)c(S(=O)(=O)C(F)(F)F)c4)cc3)CC2)C1 [Navitoclax] (partner 0.5 µM)
Outline: (§1)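 The day after seeding in 1536-well plates, lung cancer cell lines were treated by pin tool with a single drug, or with a fixed anchor-drug dose together with five library-drug doses (not always all listed) in √10 steps. After 5 days, a combined fix-and-stain solution (final 0.05% Triton X-100, 1% formaldehyde, 1 ug/ml Hoechst) was added. Nuclei counted on 4× images gave relative viability as treated counts over vehicle counts, reported as the median of duplicate plates.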

[2] = compound: C[C@@H](N)c1ccc(C(=O)Nc2ccnc3[nH]ccc23)cc1 + O=C(c1cc(Cc2n[nH]c(=O)c3ccccc23)ccc1F)N1CCN(C(=O)C2CC2)CC1 [Olaparib] (partner 8 µM)
Outline: as §1

[3] = compound: O[C@H]1CC[C@H](Nc2ncc3nc(Nc4c(F)cc(F)cc4F)n([C@H]4CCOC4)c3n2)CC1 [Tanzisertib] + C[C@]1(O)C[C@@H](c2nc(-c3ccc4ccc(-c5ccccc5)nc4c3)c3c(N)nccn32)C1 [Linsitinib] (partner 1 µM)
Outline: as §1

[4] = compound: C1CNCCC1C2=CC(=NN2)C3=CC=NC=C3 + C[C@]1(O)C[C@@H](c2nc(-c3ccc4ccc(-c5ccccc5)nc4c3)c3c(N)nccn32)C1 [Linsitinib] (partner 1 µM)
Outline: as §1

## UMC-11
[1]; first compound 0.08 µM
  relative viability: 0.33
[1]; first compound 0.253 µM
  relative viability: 0.319
[1]; first compound 0.8 µM
  relative viability: 0.362
[1]; first compound 2.53 µM
  relative viability: 0.342
[1]; first compound 8 µM
  relative viability: 0.392
[2]; first compound 0.04 µM
  relative viability: 0.359
[2]; first compound 0.1265 µM
  relative viability: 0.427
[2]; first compound 0.4 µM
  relative viability: 0.357
[2]; first compound 1.265 µM
  relative viability: 0.303
[2]; first compound 4 µM
  relative viability: 0.285
[3]; first compound 0.08 µM
  relative viability: 1
[3]; first compound 0.253 µM
  relative viability: 0.954
[3]; first compound 0.8 µM
  relative viability: 1.03
[3]; first compound 2.53 µM
  relative viability: 0.988
[3]; first compound 8 µM
  relative viability: 1.06
[4]; first compound 0.08 µM
  relative viability: 0.987
[4]; first compound 0.8 µM
  relative viability: 1.08
[4]; first compound 2.53 µM
  relative viability: 1.17
[4]; first compound 8 µM
  relative viability: 0.982

Reference: the supplement of paper PMC10307832
